pIC50: −log10 of the molar value.
Experiments:
HL60 cells [1] = test: Cell viability by CellTiterGlo, HL60; type: cell-based; settings: Homo sapiens, HL-60; 24 h, 5 to 50 µM
Procedure: (§1) The effect of compounds on cell viability was performed by measuring 3-[4,5-dimethylthiazol-2-yl]-2,5-diphenyltetrazolium bromide inner salt (MTT, Sigma-Aldrich) dye absorbance (solid tumor cells) or by quantization of ATP present in metabolically active cells using CellTiter-Glo® Luminescent (Promega, Fitchburg, Wisconsin, USA) (hematologic cells) following manifacturer's protocol. To evaluate the cell colony-forming ability, cell suspension from different samples was seeded into 60-mm Petri dishes. After 10 days, colonies were stained with 2% methylene blue in 95% ethanol and counted (1 colony > 50 cells). The surviving fractions were calculated as the ratio of absolute survival of the treated sample/survival of DMSO-treated control sample.
Figure 1 Cytotoxic screening of putative inhibitors of Bcl-2 anti-apoptotic proteins. (A) Flow cytometric quantification of propidium iodide exclusion assay in HL60 cells treated with the 49 putative Bcl-2 family inhibitors (50 μM, 72 h). (B) Analysis of cell viability by CellTiterGlo assay in HL60 cells treated for 24 h with concentrations ranging from 5 to 50 μM of the indicated compounds. (C-D) Analysis of cell viability by MTT assay in (C) M14 and (D) Sbcl2 melanoma cell lines treated for 72 h with concentrations ranging from 5 to 50 μM of the indicated compounds. […]

normal human fibroblasts = test: Viability of normal fibroblasts; type: cell-based; settings: data not shown
[2] = system: MDA-MB-231 breast carcinoma cells; test: Cell viability by MTT, MDA-MB-231; type: cell-based, Human; settings: 20 µM for 72 h, vs control
Procedure: as §1
(§2) Figure 4 Analysis of the effect of IS20 and IS21 on cell viability, clonogenic ability and tumor sphere formation in cancer cells. […] (B) Representative images and quantification of clonogenic ability evaluated in M14 and H1299 cells treated with IS20 or IS21 (20 μM for 72 h). […] (C) Quantification of tumor sphere formation of M14 and H1299 cells treated with IS20 or IS21 (20 μM for 72 h). […] (A-C) Data are reported as mean ± SD of three independent experiments. p-values were calculated between control (Ctrl) and treated cells, ** p < 0.001 and *** p < 0.0001.

H1299 cells = test: Clonogenic assay, H1299; type: cell-based, Human; settings: 20 µM for 72 h, respect to controls
Procedure: as §1, §2

M14 cells = test: Western blot of PARP1 cleavage, M14; type: cell-based, Human; settings: 72 h
Procedure: (§3) Western blot analyses of total protein extracts were performed as previously described. Immunodetection was performed using antibodies directed to poly (ADP-ribose) polymerase (PARP; BD Biosciences San Diego, CA, USA), LC3B (Cell Signaling Technology, Danvers, MA), HSP72/73 (Calbiochem, EMD Biosciences, La Jolla, CA), Bcl-2 (SC-509, Santa Cruz Biotechnology Inc, Dallas, TX, USA), Bcl-xL (SC-271121, Santa Cruz Biotechnology Inc), Mcl-1 (SC-12756, Santa Cruz Biotechnology Inc) α-tubulin (Santa Cruz Biotechnology Inc) actin (Sigma-Aldrich, St. Louis, Missouri, USA). Anti-rabbit or anti-mouse immunoglobulin G-horseradish peroxidase-conjugated antibodies (Amersham Biosciences, Freiburg, Germany) were used as secondary antibody. Images were acquired by Image Lab Software (Bio-Rad, Hercules, CA, USA), using a ChemiDoc System instrument (Bio-Rad). The densitometric evaluation was performed using Image J software and normalized with relative controls.
Figure 5 Analysis of apoptosis induction by IS20 and IS21 in leukemia, melanoma and NSCLC cells. […] (A-F) Reported images are representative of two independent experiments with similar results. HSP72/73 or α-Tubulin are shown as loading and transferring control. (G) Flow cytometric quantification of cells in the subG1 peak of cell cycle distribution by propidium iodide staining in HL60 cell line treated with IS20 or IS21 (20 μM for 24 h) and in M14, H1299 and MDA-MB-231 cell lines treated with IS20 or IS21 (20 μM for 72 h). Data are reported as mean ± SD of three independent experiments. p-values were calculated between control (Ctrl) and treated cells, * p < 0.05. (H) Flow cytometric quantification of cells in the subG1 peak by propidium iodide staining in M14 and H1299 cell lines treated with IS20 or IS21 (20 μM, 72 h) in presence or absence of the pan caspase inhibitor z-VAD (50 μM). p-values were calculated between treated control (Ctrl) cells, # p < 0.01, ## p < 0.001 or between cells treated with IS20 or IS21 alone or in combination with z-VAD, * p < 0.05, ** p < 0.005. (G-H) Data are reported as mean of two (H) or three (G) experiments ± SD.

HL60 cells [3] = test: Western blot of PARP1 cleavage, HL60; type: cell-based, Human; settings: 20 µM for 24 h
Procedure: as §3, with “The densitometric evaluation was performed using Image J software and normalized with relative controls.” left out
(§4) Figure 5 Analysis of apoptosis induction by IS20 and IS21 in leukemia, melanoma and NSCLC cells. […] (G) Flow cytometric quantification of cells in the subG1 peak of cell cycle distribution by propidium iodide staining in HL60 cell line treated with IS20 or IS21 (20 μM for 24 h) and in M14, H1299 and MDA-MB-231 cell lines treated with IS20 or IS21 (20 μM for 72 h). Data are reported as mean ± SD of three independent experiments. p-values were calculated between control (Ctrl) and treated cells, * p < 0.05. […]

U937 cells = test: Western blot of PARP1 cleavage, U937; type: cell-based, Human; settings: 20 µM for 24 h
Procedure: as §3, with “The densitometric evaluation was performed using Image J software and normalized with relative controls.” left out
as §4

**Q.** How did the pIC50 (HL60 cells [1]) turn out when `CCCCCOc1ccc(C2/C(=C(\O)c3ccc4c(c3)CC(C)O4)C(=O)C(=O)N2c2nnc(SCc3ccc(Cl)cc3)s2)cc1OCC` (centres unmarked) [IS21] was run?
**A.** 4.47 to 4.96

**Q.** What about the “effect on normal human fibroblasts viability” value (normal human fibroblasts) of the same molecule?
**A.** no significant effect

**Q.** What about the “cell viability MDA-MB-231” value [2] of the same molecule?
**A.** not significantly perturbed

**Q.** What about the “decrease of cell colony formation, H1299” value (H1299 cells) of the same molecule?
**A.** 80-90%

**Q.** And the “PARP1 cleavage, M14” value (M14 cells)?
**A.** cleavage of PARP1

**Q.** What about the “PARP1 cleavage, HL60” value (HL60 cells [3]) of the same molecule?
**A.** cleavage of PARP1

**Q.** What about the “PARP1 cleavage, U937” value (U937 cells) of the same molecule?
**A.** cleavage of PARP1

**Q.** What does the source list for `CCCCOc1ccc(C2/C(=C(\O)c3ccc4c(c3)CC(C)O4)C(=O)C(=O)N2c2nnc(SCc3ccc(Cl)cc3)s2)cc1OCC` (centres unmarked) [IS20]?
**A.** pIC50 (HL60 cells [1]): 4.47 to 4.96; effect on normal human fibroblasts viability (normal human fibroblasts): no significant effect; cell viability MDA-MB-231 [2]: not significantly perturbed; decrease of cell colony formation, H1299 (H1299 cells): 80-90%; PARP1 cleavage, M14 (M14 cells): cleavage of PARP1; PARP1 cleavage, HL60 (HL60 cells [3]): cleavage of PARP1; PARP1 cleavage, U937 (U937 cells): cleavage of PARP1
